Results reported in article PMC3199867, “Targeting surface nucleolin with multivalent HB-19 and related Nucant pseudopeptides results in distinct inhibitory mechanisms depending on the malignant tumor cell type” (BMC Cancer, 2011).

What was measured:
SW480 = assay: Cell growth / proliferation (cell number); format: cell-based, human; settings: for % Growth inhibition After 3 days: SW480, N6 or N7 20 μM, viable cell number vs untreated control, mean of at least 2 independent experiments; for Number of cells / % inhibition: counted seven days after seeding; for Number of cells: control 1,500,000
Experimental: (§1) Human breast (MDA-MB-231, MDA-MB-435 [37]), prostate (LNCaP, from American Type Culture Collection, ATCC, Rockville, MD), and cervical (HeLa) epithelial cancer cells were grown in DMEM-glutamax medium (Gibco Invitrogen, Cergy-Pontoise, France) containing GlutaMAX™, 4.5 g/l glucose and supplemented with 10% heat-inactivated (56°C for 30 min) fetal bovine serum (FBS; Hyclone, Thermo Fisher Scientific, Inc). Human SW480 cells are derived from a grade 3-4 colon carcinoma, while the highly metastatic counterpart SW620 is established from the lymph node of a person. Both SW480 and SW620 cells (obtained from Francis Raul, IRCAD) are highly tumorigenic in nude mice. They were cultured in D-MEM, 10% FCS. The murine melanoma TIII cell line was obtained from Armelle Prévost-Blondel. Murine T29 lymphoma cells, obtained from Philippe Kastner (CNRS, Strasbourg), have been established from Ik^L/L tumors from mice carrying a hypomorphic mutation (Ik^L/L) in the Ikaros gene encoding a transcription factor that regulates lymphocyte differentiation, and acts also as a tumor suppressor in T lymphocytes. The T29 cells were cultured in RPMI medium containing 25 mM Hepes pH 7.6, 1 mM sodium pyruvate, and 10% FCS. Human leukemia cell lines, Jurkat (acute T cell leukemia), HuT 78 (cutaneous T lymphocyte), RAJI (Burkitt lymphoma), and HL60 (promyelocytic leukemia) were cultured in RPMI-1640 medium (Gibco) containing GlutaMAX™, and supplemented with 10% heat-inactivated FBS as described before. The wild-type Chinese hamster ovary cell line (CHO K1) was purchased from American Type Culture Collection (ATCC; Rockville, MD). The CHO LRP1-null cell line (CHO-13-5-1) was kindly provided by D. Strickland [47]. They were cultured in Ham's F12K medium. All cells were cultured with 10% (v/v) heat inactivated (56°C, 30 min) fetal bovine serum (FBS) (Roche Molecular Biochemicals, Indianapolis, IN) and 50 international units/mL penicillin-streptomycin (Invitrogen). Cell death was monitored conveniently by uptake of the trypan blue dye due to plasma membrane permeability of dying and/or dead cells.

SW620 = assay: Cell growth / proliferation (cell number); format: cell-based, human; settings: for % Growth inhibition After 3 days: SW620, N6 or N7 20 μM, viable cell number vs untreated control, mean of at least 2 independent experiments; for Number of cells / % inhibition: counted seven days after seeding; for Number of cells: control 1,800,000
Experimental: as §1

TIII = assay: Cell growth / proliferation (viable cell number); format: cell-based, murine; settings: mean of at least 2 independent experiments; for % Inhibition of cell Proliferation: after 3 days of culture, vs untreated control; for % Growth inhibition After 3 days: N6 or N7 20 μM, viable cell number vs untreated control
Experimental: as §1

HL60 = assay: Cell growth (viable cell number); format: cell-based, human; settings: N6 or N7 20 μM, viable cell number vs untreated control, mean of at least 2 independent experiments
Experimental: as §1

HeLa = assay: Cell growth (viable cell number); format: cell-based, human; settings: N6 or N7 20 μM, viable cell number vs untreated control, mean of at least 2 independent experiments
Experimental: as §1

HuT 78 = assay: Cell growth (viable cell number); format: cell-based, human; settings: N6 or N7 20 μM, viable cell number vs untreated control, mean of at least 2 independent experiments
Experimental: as §1

Jurkat = assay: Cell growth (viable cell number); format: cell-based, human; settings: N6 or N7 20 μM, viable cell number vs untreated control, mean of at least 2 independent experiments
Experimental: as §1

LNCaP = assay: Cell growth (viable cell number); format: cell-based, human; settings: N6 or N7 20 μM, viable cell number vs untreated control, mean of at least 2 independent experiments
Experimental: as §1

MDA-MB 231 = assay: Cell growth (viable cell number); format: cell-based, human; settings: N6 or N7 20 μM, viable cell number vs untreated control, mean of at least 2 independent experiments
Experimental: as §1

MDA-MB 435 = assay: Cell growth (viable cell number); format: cell-based, human; settings: N6 or N7 20 μM, viable cell number vs untreated control, mean of at least 2 independent experiments
Experimental: as §1

RAJI = assay: Cell growth (viable cell number); format: cell-based, human; settings: N6 or N7 20 μM, viable cell number vs untreated control, mean of at least 2 independent experiments
Experimental: as §1

Substance | % Growth inhibition After 3 days (SW480) | % Growth inhibition After 3 days (SW620) | % Growth inhibition After 3 days (TIII) | % Growth inhibition After 3 days (HL60) | % Growth inhibition After 3 days (HeLa) | % Growth inhibition After 3 days (HuT 78) | % Growth inhibition After 3 days (Jurkat) | % Growth inhibition After 3 days (LNCaP) | % Growth inhibition After 3 days (MDA-MB 231) | % Growth inhibition After 3 days (MDA-MB 435) | % Growth inhibition After 3 days (RAJI) | also measured
Ac-Lys-Aib-Gly-Lys-Aib-Gly-Lys-Aib-Gly-Lys-Aib-Gly-Lys-Aib-Gly-Lys-Aib-Gly-CONH2 [Nucant N6, Presents hexavalently the pseudo-tripeptide Lysψ(CH2N)-Pro-Arg coupled to the polypeptide template containing Aib] | 25% | 45% | 55% | 65% | 46% | 62% | 80% | 88% | 92% | 58% | 75% | % Inhibition of cell Proliferation (TIII; 2.5 μM): 12%; % Inhibition of cell Proliferation (TIII; 5 μM): 20%; % Inhibition of cell Proliferation (TIII; 10 μM): 32%; % Inhibition of cell Proliferation (TIII; 20 μM): 45%
Ac-KAKPGKAKPGKAKPG-NH2 [Nucant N7, Presents hexavalently the pseudo-tripeptide Lysψ(CH2N)-Pro-Arg coupled to a similar template as in HB-19] | 25% | 45% | 55% | 65% | 46% | 62% | 80% | 88% | 92% | 58% | 75% | Number of cells (SW480; SW480, 10 μM added once 5 hours after seeding (20,000 cells/ml, 2 ml)): 1,200,000; % inhibition (SW480; SW480, 10 μM added once 5 hours after seeding): 20%; Number of cells (SW480; SW480, 20 μM added once 5 hours after seeding (20,000 cells/ml, 2 ml)): 900,000; % inhibition (SW480; SW480, 20 μM added once 5 hours after seeding): 40%; Number of cells (SW620; SW620, 10 μM added once 5 hours after seeding (20,000 cells/ml, 2 ml)): 1,000,000; % inhibition (SW620; SW620, 10 μM added once 5 hours after seeding): 44%; Number of cells (SW620; SW620, 20 μM added once 5 hours after seeding (20,000 cells/ml, 2 ml)): 700,000; % inhibition (SW620; SW620, 20 μM added once 5 hours after seeding): 61%
